According to patent publication US12629394B2, “Atlas of Choroid Plexus cell types and therapeutic and diagnostic uses thereof” (The Broad Institute, Inc., priority 2019, dated 2026):
Entries after “also recorded” stand apart in the source; their conditions may differ.

Tests used:
[1] = system: human iPSC cortical neurons; experiment: MTX exposure of cultured human cortical neurons (iPSCs): oxidative stress and damage; type: cell-based
Description: (§1) AAV2/5-SOD3 or control AAV2/5-GFP was injected into embryonic (E) 13.5 mouse lateral ventricles, and offspring were raised to 4-6 weeks of age. Applicants quantified choroid plexus-SOD3 expression (qRT-PCR), CSF-SOD protein levels (immunoblotting), and CSF-anti-oxidant capacity (ELISA). In parallel, Applicants tested if Methotrexate (MTX) exposure induced signatures of oxidative damage in cultured human cortical neurons (iPSCs), in patient CSF, and in vivo rodent brain. To test if supplemental choroid plexus-SOD3 protects the brain from acute oxidative stress, intravenous MTX was administered to mice previously transduced with AAV2/5-SOD3 or control AAV2/5-GFP, and analyzed cortex, hippocampus, and corpus callosum for markers of oxidative damage 48 hours later.
(§2) Optimized assays for evaluating redox homeostasis and oxidative damage to cells, lipids, and DNA and found chemotherapy (MTX)-induced oxidative damage in human neurons in vitro and in rodent brain in vivo, and rodent ChP in vitro and in vivo was performed (FIG. 4; data not shown).

[2] = system: CSF-SOD, CSF antioxidant capacity; experiment: Patient CSF after MTX: SOD expression and antioxidant capacity; type: in vivo, human
Description: as §1, §2

[3] = system: choroid plexus, CSF, brain; experiment: Intravenous MTX in mice: ChP and CSF antioxidants, oxidative damage; type: in vivo, mouse
Description: as §1

[4] = system: choroid plexus, CSF; experiment: Intravenous MTX in rats: ChP and CSF antioxidants; type: in vivo, rat
[5] = system: choroid plexus in vitro; experiment: In vitro incubation of choroid plexus with MTX: ROS, mitochondria, SOD; type: cell-based, rodent
Description: as §2

[6] = system: CSF-SOD, CSF antioxidant capacity; conditions: despite thiol supplementation (e.g. Leucovorin); cited from earlier work
[7] = mouse, MTX 4 mg/kg i.v., evaluation at 48 hours

CSF-SOD expression levels after vs. before treatment ([2]; Primary CNS lymphoma patient, high dose MTX, sample 1B vs. pre-treatment 1A): reduced CSF-SOD expression levels
antioxidant capacity of human CSF ([2]; human CSF): diminishes antioxidant capacity
antioxidant availability in CSF [4]: reduced antioxidant availability in CSF
SOD expression and secretion ([5]; in vitro): decreases SOD expression and secretion
mitochondrial respiration in choroid plexus ([5]; in vitro): impairs mitochondrial respiration
ROS production in ChP ([5]; in vitro incubation): inducing ROS production
mitochondrial membrane potential in ChP ([5]; in vitro incubation): alters mitochondrial membrane potential
SMILES: CN(Cc1cnc2nc(N)nc(N)c2n1)c1ccc(C(=O)N[C@@H](CCC(=O)O)C(=O)O)cc1 [MTX, Methotrexate]
oxidative stress in human iPSC cortical neurons ([1]; MTX 10 uM): triggers oxidative stress
oxidative stress / markers of oxidative damage in cultured human neurons ([1]; human iPSC-derived neurons): induces oxidative stress; also recorded: induced markers of oxidative damage
markers of oxidative damage in patient CSF ([2]; patient CSF): induced markers of oxidative damage
markers of oxidative damage in rodent brain ([3]; in vivo rodent brain): induced markers of oxidative damage
antioxidant availability in CSF ([3]; mice, intravenous MTX): reduced antioxidant availability in CSF
choroid plexus anti-oxidant gene transcription ([3]; mice, intravenous MTX): decreased choroid plexus anti-oxidant gene transcription
SOD expression in vivo (CSF Sod3, SOD activity) [3, 7]: decreases SOD expression
oxidative damage in vivo (8-OHdG) [3, 7]: increases oxidative damage
choroid plexus anti-oxidant gene transcription [4]: decreased choroid plexus anti-oxidant gene transcription
anti-oxidant capacity of CSF from patients receiving chemotherapeutics [6]: reduced anti-oxidant capacity
